The source of these data is paper PMC5316530, “The Ratio of 2-AG to Its Isomer 1-AG as an Intrinsic Fine Tuning Mechanism of CB1 Receptor Activation” (Frontiers in Cellular Neuroscience, 2017).

The term EC50 denotes the concentration giving half of the maximal effect. High values mean a need for much substance, low ones an effect from little substance.

The assay deals with T1, CB1 receptor (Mus musculus, UniProt P47746).
T1 construct: gene Cnr1; pcDNA3 CB1 (Addgene plasmid # 13391) overexpressed in COS7 cells
As to the kind of experiment: Fluo-8 Ca2+ imaging in CB1-transfected COS7 cells; concentration-response, blocked by AM251. The class given is cell-based.

T1 sequence (P47746 whole entry): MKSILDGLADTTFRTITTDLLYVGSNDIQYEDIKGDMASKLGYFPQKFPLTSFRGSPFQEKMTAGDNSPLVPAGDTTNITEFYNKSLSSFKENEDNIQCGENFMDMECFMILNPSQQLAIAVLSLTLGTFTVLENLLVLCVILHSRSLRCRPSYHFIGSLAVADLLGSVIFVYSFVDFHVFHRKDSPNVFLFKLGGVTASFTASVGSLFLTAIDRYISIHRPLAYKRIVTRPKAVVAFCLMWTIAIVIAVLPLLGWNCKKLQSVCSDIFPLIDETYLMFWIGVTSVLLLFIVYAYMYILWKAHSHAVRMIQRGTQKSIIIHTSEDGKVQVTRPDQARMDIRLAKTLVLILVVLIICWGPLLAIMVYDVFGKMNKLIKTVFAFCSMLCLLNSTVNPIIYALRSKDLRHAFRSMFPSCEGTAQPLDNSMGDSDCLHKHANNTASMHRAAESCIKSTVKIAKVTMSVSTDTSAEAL

Turning to `CCCCC/C=C\C/C=C\C/C=C\C/C=C\CCCC(=O)OC[C@@H](O)CO` [1-AG], the EC50 is 1.9 µM. This counts as single-digit micromolar. The result for `CCCCC/C=C\C/C=C\C/C=C\C/C=C\CCCC(=O)OC(CO)CO` [2-AG] reads 0.6 µM.
